Test results from patent US20260027073A1, “USE OF SMALL-MOLECULE COMPOUND HAVING NAPHTHYLAMINE STRUCTURE” (HANGZHOU PHECDAMED CO., LTD., priority 2023, published 2026).
Values joined by “and” are separate entries in the source; they are usually repeats but may differ in a detail not shown here. Identical values can stand only once.

What was measured:
[1] = test system: autoimmune myocarditis model rats; assay: Autoimmune myocarditis model; format: in vivo, Lewis rats; details: for left ventricular end-diastolic transverse diameter LVIDd / left ventricular end-systolic transverse diameter LVIDs / ejection fraction EF / short-axis fractional shortening FS / serum CK-MB level: 30 mg/kg oral gavage, 4 weeks; for left ventricular end-diastolic transverse diameter LVIDd / left ventricular end-systolic transverse diameter LVIDs: FIG. 79; for ejection fraction EF / short-axis fractional shortening FS: FIG. 80; for serum CK-MB level: FIG. 81
Protocol: 8-week-old male SPF-grade Lewis rats were adaptively fed for one week to construct an autoimmune myocarditis model. The rats were divided into two groups, normal control group (normal rats, routine feeding) and model group, in which porcine cardiac myosin used to induce autoimmunity and Freund's adjuvant were fully mixed in 1:1 in the model group (purified porcine cardiac myosin was dissolved in PBS solution, with its concentration being controlled to 10 g/L, under sterile conditions the solution was mixed with the complete Freund's adjuvant CFA in 1:1 equal volume and emulsified completely, so that it became a homogeneous emulsion), a total of 0.2 ml of the immunization mixture was injected subcutaneously into multiple points such as the bilateral groin and axilla of the rats. Normal control rats were immunized with myosin-free PBS and CFA emulsion. From the 14th day after immunization, the model groups were administrated in groups, and were divided into three groups: model group (model, treated with 0.5% CMC-Na by oral gavage, n=8) TJ01-013 treatment group (TJ01-013, 30 mg/kg TJ01-013 by oral gavage, n=8), I-14-1 treatment group (I-14-1, 30 mg/kg I-14-1 by oral gavage, n=8). A normal control group (Control, treated with 0.5% CMC-Na by oral gavage, n=8) was further provided, and the administration of the drug was started immediately after grouping, and the drug was administered for a total of 4 weeks. At the end of the administration, rats were weighed, anesthetized and blood was taken, and serum was extracted and the corresponding physiological indexes were detected. After euthanasia, the rats' hearts were stripped and weighed, and the organ coefficients of the hearts were calculated.
After the end of administration, rats were weighed, anesthetized with 10% chloral hydrate via intraperitoneal injection, and then subjected to echocardiography in the supine and slightly left lateral position after chest hair removal, and the average value was taken from 3 repetitions. The detection indexes include left ventricular end-diastolic transverse diameter LVIDd, left ventricular end-systolic transverse diameter LVIDs, short-axis fractional shortening FS, and ejection fraction EF.

[2] = test system: CUP model mice; assay: Multiple sclerosis CUP model; format: in vivo, C57BL/6; details: for number of open arm entries (elevated cross maze) / walking distance (elevated cross maze) / open arm time (elevated cross maze) / number of crossing over the platform (water maze): 30 mg/kg oral gavage; for number of open arm entries (elevated cross maze): FIG. 86; for walking distance (elevated cross maze): FIG. 87; for open arm time (elevated cross maze): FIG. 88; for number of crossing over the platform (water maze): FIG. 89
Protocol: After one week of adaptive feeding in 7-8 weeks C57BL/6 female […], they were randomly divided into four groups according to their body weights: the normal control group (Control, 0.5% CMC-Na treatment by oral gavage, n=8), the model group (model, 0.5% CMC-Na treatment by oral gavage, n=8), TJ01-013 treatment group (TJ01-013, 30 mg/kg TJ01-013 by oral gavage, n=8), I-14-1 treatment group (I-14-1, oral gavage 30 mg/kg I-14-1, n=8). The normal control group was fed with the basal diet throughout for 12 weeks, and the model group, TJ01-013 treatment group, and I-14-1 treatment group were fed with 0.2% CUP diet throughout. All groups were administered 5 ml/kg in a volume of 5 ml/kg for a total of 12 weeks starting 6 weeks after modeling.
The elevated cross maze consisted of two open arms (35 cm×6 cm) and two closed arms (35 cm×6 cm×14 cm), with the middle area (6 cm×6 cm) and a height of 70 cm above the ground, and the mice were placed in the middle area facing the open arms, and were active for 5 min in a 50 cm×50 cm open field prior to the start of the test. During the test, the activity time, the activity distance and the number of open arm entries in the mice were counted. Each mouse was wiped with 75% alcohol on the maze after the test.
The mice were placed in a basin with a diameter of 70 cm and a height of 30 cm, and the water temperature was about 22-24° C. The basin was divided into four quadrants, and a platform with a diameter of 5 cm was placed in the target quadrant, which was placed 1 cm below the surface of the water. The mice were acclimatized for 1 day before the official test and learned for 4 days, during learning, the mice entered the water in the direction of facing the wall of the basin, and were given 60 s to search for the platform, or else were guided to learn for 30 s on the platform, and the time that the mice found the platform during learning was recorded. The platform was withdrawn on the day of the test, and the number of crossing over the platform after entering from the opposite quadrant of the target quadrant in mice was recorded to determine the spatial learning and memory ability of the mice.

[3] = test system: rats of type I diabetes nephropathy model; assay: Kidney injury induced by type 1 diabetic nephropathy (STZ); format: in vivo, SD rats
Protocol: 150-170 g SD male rats were fasted but not deprived of water for 12 h before surgery, and a longitudinal incision was made at the intersection of the lower edge of the right rib arch, which was about 1 cm long. Then the three layers of skin, mucous membrane, and muscle were separated layer by layer to expose the perinephric fat, and the perinephric fat was clamped by hemostatic forceps and lifted upward to expose the right kidney, and the right kidney pedicle was ligated and the right kidney was resected, and after no hemorrhage was checked, the tissues were sutured layer by layer. One week after surgery, 1% streptozotocin (STZ) 50 mg/kg was injected intraperitoneally in a volume of […]. Rats in the sham group only had the abdominal cavity opened, the right renal adipose capsule was peeled off, and the right kidney was not resected; the abdominal cavity was closed, the incision was sutured and an equal volume of citrate solution was injected into the tail vein one week later.
Random blood glucose was measured 72 h after STZ injection, and blood glucose ≥16.65 mmol/L was considered as successful diabetes modeling. The successful modeling rats were selected to continue to be fed with normal chow and free water. […] The experiment was divided into sham group (sham group, without STZ modeling and given vehicle by oral gavage), Control group (model control group, STZ modeling and given vehicle treatment by oral gavage), and 15 mg/kg I-1 group (STZ modeling and given 15 mg/kg I-1 by oral gavage), and the dosage of the drug was administered once a day in the volume of 10 ml/kg for 27 days. […] At the end point of the experiment, the rats were euthanized, the kidneys were removed after dissection, and four kidneys were taken to be fixed with 4% paraformaldehyde for 48 h, paraffin-embedded, sectioned and HE stained, and the specific staining procedure was as described above.

Structure (SMILES) | left ventricular end-diastolic transverse diameter LVIDd [1] | left ventricular end-systolic transverse diameter LVIDs [1] | ejection fraction EF [1] | short-axis fractional shortening FS [1] | serum CK-MB level [1] | number of open arm entries (elevated cross maze) [2] | walking distance (elevated cross maze) [2] | open arm time (elevated cross maze) [2] | number of crossing over the platform (water maze) [2] | also measured
O=C(O)C[S+]([O-])c1cc(NS(=O)(=O)c2ccc(C(F)(F)F)cc2)c2ccccc2c1O (stereo not shown) [I-14-1] | reduce | reduce | increase | increase | decrease | significantly reduced | reduced | significantly decreased | increased | 
O=C(O)C[S+]([O-])c1cc(NS(=O)(=O)c2ccc(Br)cc2)c2ccccc2c1O (stereo not shown) [I-1] | reduce | reduce | increase | increase | decrease | significantly reduced | reduced | significantly decreased | increased | body weight ([3]; 15 mg/kg oral gavage, 27 days, FIG. 14): trend of increasing body weight; blood glucose level ([3]; 15 mg/kg, 27 days, FIG. 16): no significant effect; 24-h urine protein level ([3]; 15 mg/kg, 27 days, FIG. 17): decrease in the 24-h urine protein level of rats, but there was no significant difference; serum creatinine level ([3]; 15 mg/kg, 27 days, P<0.5 [sic], FIG. 15): significantly decreased; degree of renal pathology (HE staining) ([3]; 15 mg/kg, 27 days, vs model group, FIG. 18): significant reduction; Renal lesion (number of kidneys, n = 4) ([3]; Degree of lesion + (mild lesions), 15 mg/kg): 3/4 and 3; Renal lesion (number of kidneys, n = 4) ([3]; Degree of lesion ++ (moderate lesions), 15 mg/kg): 0; Renal lesion (number of kidneys, n = 4) ([3]; Degree of lesion +++ (severe lesions), 15 mg/kg): 1/4 and 1; Renal lesion (number of kidneys, n = 4) ([3]; Degree of lesion ± (slight lesions), 15 mg/kg): 0; Renal lesion (number of kidneys, n = 4) ([3]; Degree of lesion − (no lesions), 15 mg/kg): 0; treatment of TJ01-013 compared with I-14-1 ([1]; LVIDd/LVIDs, EF/FS, CK-MB): significantly better; treatment of TJ01-013 compared with I-14-1 ([2]; per readout of the block): significantly better
O=C(O)CSc1cc(NS(=O)(=O)c2ccc(Br)cc2)c2ccccc2c1O [UMI-77, reference compound] |  |  |  |  |  |  |  |  |  | protection against kidney injury in type 1 diabetes compared with I-1 group ([3]; UMI-77 vs I-1): less protective
